# Laboratory results: patent US20230025807A1 (priority 2019, published 2023)
# Biological target: T1, Human CD38 (Homo sapiens, UniProt P28907)
# T1 construct: purchased BPS Bioscience 79287
# T1 sequence (P28907 1-300): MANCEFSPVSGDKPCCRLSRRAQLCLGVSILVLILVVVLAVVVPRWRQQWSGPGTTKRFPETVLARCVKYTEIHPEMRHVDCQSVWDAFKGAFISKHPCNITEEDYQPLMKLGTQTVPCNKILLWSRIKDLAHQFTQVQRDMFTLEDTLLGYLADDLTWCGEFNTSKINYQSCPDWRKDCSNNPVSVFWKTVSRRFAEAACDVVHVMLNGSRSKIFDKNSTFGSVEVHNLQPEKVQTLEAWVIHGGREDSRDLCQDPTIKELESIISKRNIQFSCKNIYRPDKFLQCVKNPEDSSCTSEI
# Assay: biochemical
# Procedure: CD38 hydrolase buffer (4×) was thawed on ice and 1×CD38 hydrolase buffer was prepared by diluting 4×CD38 hydrolase buffer with water. CD38 hydrolase enzyme was diluted to […] with 1×CD38 hydrolase buffer (10 ng/well). Master mix was prepared by mixing equal volumes of water and CD38 hydrolase buffer (4×) and 10 μl of the mix was added to all the wells. Following master mix addition, 10 μl of the inhibitors and 20 μl of CD38 hydrolase enzyme were added to the wells. For wells designated blank, 10 μl and 20 μl of 1×CD38 hydrolase buffer was added respectively in place of CD38 enzyme and inhibitors. The plate was covered and incubated 30 min at room temperature with slow shaking at 400 rpm. After 30 min incubation, the plate was removed and 10 μl of diluted ε-NAD substrate was added to all the wells. The plate is incubated for 10 min, spun at 1200 rpm for 30 secs to remove bubbles and read in Tecan Spark using a fluorometer setting of excitation 300 nm and emission 410 nm. The reading for the blank was subtracted from all the values. IC50 for the test compounds were determined by using Graphpad prism software v7.0.
smiles,measurement,value
"COCCO[C@H]1CC[C@H](NC(=O)c2cc(-c3cncs3)cc3c(C#N)c[nH]c23)CC1 [Example 20, 3-cyano-N-((1r,4r)-4-(2-methoxyethoxy)cyclohexyl)-5-(thiazol-5-yl)-1H-indole-7-carboxamide]",IC50,19 nM
